Test results from patent publication US11707442B2, “Antibacterial and antifungal compounds” (The General Hospital Corporation, priority 2015, dated 2023).
≈ marks a conversion by molar mass, not a printed value.

Tests used:
P. aeruginosa = test: MIC, broth microdilution; type: cell-based, Pseudomonas aeruginosa; settings: Pseudomonas aeruginosa; P. aeruginosa PA14; read-out: Minimum inhibitory concentration
Description: Bacterial strains and growth conditions and persister isolation: methicillin-resistant S. aureus (MRSA) strain MW2 BAA-1707, vancomycin-resistant S. aureus strain VRS 1, 11 clinical S. aureus isolates, 8 clinical Enterococcus faecium isolates, Klebsiella pneumoniae WGLW2 (BEI Resources, Manassas, Va., USA), Acinetobacter baumannii ATCC 17978, Pseudomonas aeruginosa PA14, and Enterobacter aerogenes ATCC 13048 were used to test antimicrobial activity (See Table 1a). S. aureus and E. faecium strains were grown in tryptic soy broth (TSB) (BD, Franklin Lakes, N.J., USA) or brain-heart infusion (BHI) broth (BD, Franklin Lakes, N.J., USA), respectively at 37° C. at 225 rpm. K. pneumoniae, A. baumannii, P. aeruginosa, and E. aerogenes were grown in Luria Bertani (LB) broth (BD, Franklin Lakes, N.J., USA).
To test the bacterial MICs for compounds described herein, the total volume in each well was 100 μl of test compounds and bacterial cells in MH broth. […] The bacterial concentration was adjusted to an initial OD600 of 0.03. After incubation at 35° C. for 18 hrs, the absorbance was measured at 595 nm in accordance with CLSI document M07-A8. The MICs of antibiotics were determined by the standard microdilution method recommended by the Clinical and Laboratory Standards Institute.

E. faecalis = test: MIC, broth microdilution; type: cell-based, Enterococcus faecalis; settings: for MIC: Enterococcus faecalis, E. faecalis, (range given for E. faecium and E. faecalis); for susceptibility of E. faecalis: result in words
Protocol: To test the bacterial MICs for compounds described herein, the total volume in each well was 100 μl of test compounds and bacterial cells in MH broth. Two-fold serial dilutions were carried out to get compounds in the concentration range 0.0625-64 μg/ml. The bacterial concentration was adjusted to an initial OD600 of 0.03. After incubation at 35° C. for 18 hrs, the absorbance was measured at 595 nm in accordance with CLSI document M07-A8. The MICs of antibiotics were determined by the standard microdilution method recommended by the Clinical and Laboratory Standards Institute.

S. aureus MW2 = type: cell-based, Staphylococcus aureus; settings: for fold increase in resistance: mutations in graS, yjbH, and manA; for fold increased resistance of CD437-resistant mutants: presumptive CD437-resistant SP1/SP2 mutants
Protocol: Development of resistant mutants by serial passage was conducted as previously described (Friedman, L. et al. Genetic changes that correlate with reduced susceptibility to daptomycin in Staphylococcus aureus. Antimicrob. Agents Chemother. 2006, 50, 2137-2145). […] The extended gradient was created by 2-fold serial dilutions with cation-adjusted Muller-Hinton media (CaMH) from three different starting concentrations: 80, 96, and 128 μg/ml. […] After incubating the plate at 37° C. for 24 h, OD600 nm was measured by a spectrophotometer (SpectraMax M2, Molecular Devices). Bacterial growth was defined as OD600 nm≥0.1. Two μl of the bacterial culture at the highest drug concentration that permitted bacterial growth was diluted 1,000-fold in CaMH, and the diluted culture was used as inoculum for the next passage. The rest of the culture was stored in 16% glycerol at −80° C.
Sequencing of PCR products were conducted by GENEWIZ (South Plainfield, N.J., USA). The passage day when the mutations occurred was identified by colony PCR using three colonies from each glycerol freezer stock, followed by sequencing of the PCR products. The passage day when the susceptibility to the retinoids changed was identified by repeating MIC determinations using overnight cultures from three colonies from each glycerol freezer stock.

[1] = Giant unilamellar vesicles (GUVs) disruption; settings: DOPC/DOPG 7:3; 1× and 10×MIC; result in words
human erythrocytes = test: Human blood hemolysis; type: cell-based; settings: increasing concentrations; result in words
Protocol: Human blood hemolysis. Hemolytic activity of retinoids on human erythrocytes was evaluated using a previously described method with modifications (Rajamuthiah, R. et al. A defensin from the model beetle Tribolium castaneum acts synergistically with telavancin and daptomycin against multidrug resistant Staphylococcus aureus. PLoS ONE 10, e0128576 (2015)). 10% human erythrocytes were purchased from Rockland Immunochemicals (Limerick, Pa., USA). The erythrocytes were diluted to 4% with PBS, and 100 μl was added to 100 μl of two-fold serial dilutions of compounds in PBS, 0.2% DMSO (negative control), or 2% Triton-X 100 (positive control) in a 96-well plate. The 96-well plate was incubated at 37° C. for 1 h and then centrifuged at 500×g for 5 min. 100 μl of the supernatant was transferred to a fresh 96-well plate, and absorbance of supernatants was measured at 540 nm. Percent hemolysis was calculated using the following equation: (A540 nm of compound treated sample—A540nm of 0.1% DMSO treated sample)/(A540 nm of 1% Triton X-100 treated sample—A540nm of 0.1% DMSO treated sample)×100. HC50 (concentration of a compound causing 50% hemolysis) was determined using SigmaPlot 10.0 (Systat Software Inc., San Jose, Calif., USA).
In a 96 well plate, 50 μl of 2% human erythrocytes suspended in PBS was added to 50 μl of compounds serially diluted in PBS and incubated at 37° C. for 1 hour. The plate was then centrifuged at 500 G for 5 minutes and 50 μl of the supernatant from each well of the assay plate was transferred to a fresh 96 well plate. Hemolysis was confirmed by both visual observation and measuring absorbance at 540 nm. Treatment was conducted in triplicate.
2% human erythrocytes were treated with two-fold serially diluted concentration of the retinoids for 1 h at 37° C. A sample treated with 1% Triton-X 100 was used as the control for 100% hemolysis. Results are shown as means±s.d.; n=3.

[2] = test system: primary human hepatocytes; test: Hepatotoxicity (WST-1); type: cell-based; settings: at 32 μg/ml, 24 h
Protocol: Hepatotoxicity. Cryopreserved primary human hepatocytes were purchased from Cell Resource Core at Massachusetts General Hospital (Boston, Mass., USA). The hepatocytes were cultured in collagen sandwiched configuration in 24-well plates, as described previously (See, e.g., Dunn, J. C., et al. Hepatocyte function and extracellular matrix geometry: long-term culture in a sandwich configuration. FASEB J. 3, 174-177 (1989); Dunn, J. C., et al. Hepatocytes in collagen sandwich: evidence for transcriptional and translational regulation. J. Cell Biol. 116, 1043-1053 (1992); and Sharma, N. S. et al. Metabolic profiling based quantitative evaluation of hepatocellular metabolism in presence of adipocyte derived extracellular matrix. PLoS ONE 6, e20137 (2011)). Briefly, 0.4×10^6 live cells were seeded in 24-well plates coated with rat tail collagen type I. In order for cells to attach onto collagen gel, the 24-well plates were incubated in a humidified 5% CO2 incubator at 37° C. for 4 hours. The cells were washed and then cultured in 0.5 ml standard hepatocyte culture medium consisting of pre-warmed DMEM media supplemented with 10% FBS, 0.5 U/ml insulin, 14 ng/ml glucagon, 20 ng/ml EGF, 7.5 μg/ml hydrocortisone and 200 U/ml penicillin-streptomycin. The cell cultures were incubated in a humidified 5% CO2 incubator at 37° C. At 24 h after seeding, a top layer of collagen gel was deposited on the hepatocytes attached to the bottom collagen layer and incubated for another 24 h, then the hepatocytes were treated with a range of concentrations of retinoids for 24 h. […] WST-1 reduction was measured at absorbance 450 nm. The percent […] relative to that of the no-treatment control was calculated. […]
0.4×10^6 primary human hepatocytes cultured in a collagen gel sandwich system were treated with a range of concentration of the synthetic retinoids for 24 h. Cell viability was calculated based on the absorbance readings at 450 nm at 4 h after adding WST-1 using the following equation: % viability=(Abssample−Absblank)/(Absnon-treated−Absblank)×100. […]

hERG potassium channel = biological target: T1, hERG potassium channel (Homo sapiens, UniProt Q12809); test: hERG potassium channel inhibition (IonWorks HT, CHO cells); type: cell-based; settings: at 25 μM
T1 construct: host or cells: Chinese hamster ovary (CHO) cells
Protocol: Evaluation of human ether-a-go-go-related gene (hERG) potassium channel inhibition potential. […] Electrophysiology measurement was conducted using an IonWorks™ HT instrument (Molecular Devices Corporation, Sunnyvale, Calif., USA) and 384-well planar PatChPlate™ (Molecular Devices Corporation). Briefly, Chinese hamster ovary (CHO) cells expressing the hERG potassium channel were dispensed into 384-well planar arrays, and hERG tail currents were measured by whole-cell voltage clamping. A range of concentrations (0.008 μM to 25 μM) of each retinoid were then added to the cells, and a second recording of the hERG current was made. The percent change in the hERG current was calculated.

T1 sequence (Q12809 whole entry): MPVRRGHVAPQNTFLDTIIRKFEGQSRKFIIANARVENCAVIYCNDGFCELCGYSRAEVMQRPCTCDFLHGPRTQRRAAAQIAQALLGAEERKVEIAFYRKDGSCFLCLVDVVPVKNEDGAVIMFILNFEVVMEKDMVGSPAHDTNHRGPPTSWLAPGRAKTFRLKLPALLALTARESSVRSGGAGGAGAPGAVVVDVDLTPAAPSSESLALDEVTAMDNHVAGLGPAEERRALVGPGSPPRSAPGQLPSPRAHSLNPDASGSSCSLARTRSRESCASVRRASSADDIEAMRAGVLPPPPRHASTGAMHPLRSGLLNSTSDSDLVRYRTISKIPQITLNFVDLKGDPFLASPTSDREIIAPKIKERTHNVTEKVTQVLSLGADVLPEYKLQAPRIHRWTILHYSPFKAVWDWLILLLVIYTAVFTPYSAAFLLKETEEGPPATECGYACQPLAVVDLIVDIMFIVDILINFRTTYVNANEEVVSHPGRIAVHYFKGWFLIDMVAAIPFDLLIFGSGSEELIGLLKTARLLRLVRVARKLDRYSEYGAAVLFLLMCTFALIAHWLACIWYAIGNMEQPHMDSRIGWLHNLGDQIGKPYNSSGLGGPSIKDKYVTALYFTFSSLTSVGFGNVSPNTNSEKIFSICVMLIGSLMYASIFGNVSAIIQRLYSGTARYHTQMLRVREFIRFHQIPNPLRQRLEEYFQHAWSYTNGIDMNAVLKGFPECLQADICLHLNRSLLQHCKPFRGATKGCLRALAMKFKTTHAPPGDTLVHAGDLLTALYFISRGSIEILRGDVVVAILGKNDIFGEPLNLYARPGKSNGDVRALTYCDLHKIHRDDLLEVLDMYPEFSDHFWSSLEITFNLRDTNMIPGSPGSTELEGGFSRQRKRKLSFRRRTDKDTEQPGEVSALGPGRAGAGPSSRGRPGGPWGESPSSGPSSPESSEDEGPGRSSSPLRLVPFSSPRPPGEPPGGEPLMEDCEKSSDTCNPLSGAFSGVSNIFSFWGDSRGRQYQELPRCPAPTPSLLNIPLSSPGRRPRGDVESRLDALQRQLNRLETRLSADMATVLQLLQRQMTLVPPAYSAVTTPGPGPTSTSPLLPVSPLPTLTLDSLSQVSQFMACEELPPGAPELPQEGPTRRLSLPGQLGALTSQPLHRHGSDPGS

| SMILES | MIC (P. aeruginosa) | MIC (E. faecalis) | susceptibility of E. faecalis (E. faecalis) | fold increase in resistance (S. aureus MW2) | fold increased resistance of CD437-resistant mutants (S. aureus MW2) | integrity of giant unilamellar vesicles (GUVs) [1] | toxicity (hemolysis) to erythrocytes (human erythrocytes) | toxicity to primary human hepatocytes [2] | inhibition of hERG potassium channels (hERG potassium channel) |
| --- | --- | --- | --- | --- | --- | --- | --- | --- | --- |
| O=C(O)c1ccc(-c2ccc3cc(O)c(C45CC6CC(CC(C6)C4)C5)cc3c2)cc1 [CD1530, 4-(6-hydroxy-7-tricyclo[3.3.1.13,7]dec-1-yl-2-naphthalenyl)-benzoic acid] | > 64 µg/mL | 2 to 4 µg/mL (≈ 5.02 to 10 µM) | susceptible | 1.5 fold | 2 fold | disrupt the integrity | not toxic | did not cause significant toxicity | did not inhibit |
| O=C(O)c1ccc2cc(-c3ccc(O)c(C45CC6CC(CC(C6)C4)C5)c3)ccc2c1 [CD437, 6-(4-hydroxy-3-tricyclo[3.3.1.13,7]dec-1-ylphenyl)-2-naphthalenecarboxylic acid] | > 64 µg/mL | 2 to 4 µg/mL (≈ 5.02 to 10 µM) | susceptible |  |  |  |  | did not cause significant toxicity |  |
| O=C(O)/C=C/c1ccc(-c2ccc(O)c(C34CC5CC(CC(C5)C3)C4)c2)cc1 [Adarotene, (2E)-3-(4′-Hydroxy-3′-tricyclo[3.3.1.13,7]dec-1-yl[1,1′-biphenyl]-4-yl)-2-propenoic acid] | > 64 µg/mL |  |  | 1.5 fold | 2 fold | disrupt the integrity | not toxic | did not cause significant toxicity | did not inhibit |
